Source: patent publication US10336702B2, “Pharmaceutically active compounds” (BERGENBIO ASA, priority 2015, dated 2019)

How the values were obtained:
[1] = molecular target: T1, Akt3 (Homo sapiens, UniProt Q9Y243); assay: Akt activation assay (PDK1-mediated activation, LANCE Ultra crosstide TR-FRET), Akt3; type: biochemical; settings: read-out: Biological Assay 1 IC50 (nM) Akt3
T1 construct: unspecified tag, removed (detagged) (cleaved yes); purchased SignalChem and Proteros (Akt3); Merck Millipore (PDK1) 14-452 (PDK1); none given for Akt3
T1 sequence (Q9Y243 whole entry): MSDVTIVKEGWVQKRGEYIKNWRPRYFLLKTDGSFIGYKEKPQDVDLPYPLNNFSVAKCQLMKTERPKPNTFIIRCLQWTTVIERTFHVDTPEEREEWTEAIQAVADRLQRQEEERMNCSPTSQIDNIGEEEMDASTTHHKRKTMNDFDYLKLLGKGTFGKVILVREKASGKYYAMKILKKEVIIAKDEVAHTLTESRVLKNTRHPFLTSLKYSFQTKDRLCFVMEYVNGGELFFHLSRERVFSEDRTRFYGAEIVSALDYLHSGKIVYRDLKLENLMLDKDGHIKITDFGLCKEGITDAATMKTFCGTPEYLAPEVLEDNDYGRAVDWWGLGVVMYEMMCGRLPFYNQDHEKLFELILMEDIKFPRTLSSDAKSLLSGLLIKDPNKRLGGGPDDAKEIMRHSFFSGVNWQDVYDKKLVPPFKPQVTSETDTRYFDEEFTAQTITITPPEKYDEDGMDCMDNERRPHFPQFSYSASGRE
Procedure, shortened: (§1)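 TR-FRET read-out (665/615 nm ratio) after Eu-anti-phospho-crosstide antibody, 1 h. Reaction: compound preincubated with Akt isoform, then 5 nM PDK1, lipid vesicles with 0.55 μM PtdIns(3,4,5)P3, 100 μM ATP, 100 nM crosstide, 30 min, EDTA stop. IC50 from 4-parameter equation.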

[2] = molecular target: T2, p-Akt2 in WM115 cells (Homo sapiens, UniProt P31751); assay: Phospho-Akt cellular SureFire assay, p-Akt2 in WM115 cells; type: cell-based; settings: insulin stimulated, read-out: Biological Assay 2 IC50 (nM) Akt2 WM115
T2 construct: SureFire assays to detect cellular p-Akt1, p-Akt2 and p-Akt3 levels in WM115 cells (Akt2/3) and LNCaP cells (Akt1); endogenous in cells; host or cells: WM115 (ECACC 91061232), insulin-stimulated
T2 sequence (P31751 whole entry): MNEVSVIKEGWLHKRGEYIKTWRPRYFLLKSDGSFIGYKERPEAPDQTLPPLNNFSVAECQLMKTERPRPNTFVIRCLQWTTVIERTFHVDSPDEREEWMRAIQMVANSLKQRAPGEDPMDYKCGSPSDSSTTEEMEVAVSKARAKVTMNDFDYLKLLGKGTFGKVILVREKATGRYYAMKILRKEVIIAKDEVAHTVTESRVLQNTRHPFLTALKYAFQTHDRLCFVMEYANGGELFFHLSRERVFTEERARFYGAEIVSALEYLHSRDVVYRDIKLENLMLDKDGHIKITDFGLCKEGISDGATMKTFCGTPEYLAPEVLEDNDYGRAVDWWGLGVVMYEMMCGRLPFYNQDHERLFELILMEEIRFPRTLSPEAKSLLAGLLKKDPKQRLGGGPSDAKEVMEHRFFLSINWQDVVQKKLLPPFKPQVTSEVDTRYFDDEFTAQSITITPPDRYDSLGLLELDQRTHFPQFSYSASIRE
Excerpt: (§2) Biological Assay 2: Phospho-Akt (p-Akt) Cellular SureFire Assays
(§3) The following describes SureFire assays to detect cellular p-Akt1, p-Akt2 and p-Akt3 levels in WM115 cells (Akt2/3) and LNCaP cells (Akt1). In the case of Akt2 and Akt3, Streptavidin-coated donor beads capture a biotinylated anti-mouse antibody that in turn recognises a mouse total Akt antibody which is specific to each isoform. The protein A-conjugated acceptor beads capture an antibody that recognises the phosphoprotein. Similarly in the Akt1 kit, the donor and acceptor beads are used to capture each antibody pair consisting of an antibody that specifically recognises Akt1 as well as an antibody that recognises the phosphoprotein. In each case, close proximity of the beads allows energy transfer from donor to acceptor.
(§4) Custom kit from TGR/Perkin Elmer for Akt2/3 containing anti-(pThr308)Akt antibody and biotinylated anti-mouse capture antibody.
Total Akt2 antibody (NEB UK, 5239)
(§5) WM115 cells (ECACC, 91061232) cultured in MEM culture media (M2279) supplemented with 2 mM L-glutamine (G7513), 1% non-essential amino acids (M7145), 1% sodium pyruvate (S8636) and 10% FBS (F0804)
(§6) Cell treatment: 1×10^5 WM115 cells or 5×10^4 LNCaP cells were seeded into each well of a 96 well poly-D-Lysine coated tissue culture plate and incubated overnight at 37° C.+5% CO2. Media was removed from cells and replaced with assay buffer consisting of the full culture media described above but with 0.1% FBS instead of 10% FBS. Only WM115 cells were stimulated at 37° C.+5% CO2 for 10 min with 5 μL insulin at a final concentration of 100 nM. Cells were incubated with 5 μL of test compound at a final DMSO concentration of 0.3% for 15 min at 37° C.+5% CO2. Cell lysis was carried out according to kit instructions.
(§7) Assay format (performed in subdued lighting): 4 μL cell lysate and 5 μL reaction buffer were incubated together in the dark at room temperature for 2 h. Reaction buffer was supplemented with a 1/5 dilution of activation buffer, a 1/50 dilution of acceptor beads and in the case of the custom kits, antibodies were added at dilutions of 1/20,000 for Akt2 and 1/2,000 for Akt3.
(§8) 2 μL dilution buffer, supplemented with a 1/20 dilution of donor beads was added to each well and incubated for a further 2 h. Plates were read with the EnVision® Multilabel Plate Reader and using the AlphaScreen settings. Compound IC50 was determined using a 4-parameter equation.

[3] = molecular target: T3, p-Akt3 in WM115 cells (Homo sapiens, UniProt Q9Y243); assay: Phospho-Akt cellular SureFire assay, p-Akt3 in WM115 cells; type: cell-based; settings: insulin stimulated, read-out: Biological Assay 2 IC50 (nM) Akt3 WM115
T3 construct: SureFire assays to detect cellular p-Akt1, p-Akt2 and p-Akt3 levels in WM115 cells (Akt2/3) and LNCaP cells (Akt1); endogenous in cells; host or cells: WM115 (ECACC 91061232), insulin-stimulated
T3 sequence (Q9Y243 whole entry): as the sequence (Q9Y243 whole entry) above
Excerpt: as §2, §3, §4
Total Akt3 antibody (R&D Systems MAB 1463)
as §5, §6, §7, §8

[4] = molecular target: T4, p-Akt1 in LNCaP cells (Homo sapiens, UniProt P31749); assay: Phospho-Akt cellular SureFire assay, p-Akt1 in LNCaP cells; type: cell-based; settings: read-out: Biological Assay 2 IC50 (nM) Akt1 LNCaP
T4 construct: SureFire assays to detect cellular p-Akt1, p-Akt2 and p-Akt3 levels in WM115 cells (Akt2/3) and LNCaP cells (Akt1); endogenous in cells; host or cells: LNCaP (ECACC 89110211)
T4 sequence (P31749 whole entry): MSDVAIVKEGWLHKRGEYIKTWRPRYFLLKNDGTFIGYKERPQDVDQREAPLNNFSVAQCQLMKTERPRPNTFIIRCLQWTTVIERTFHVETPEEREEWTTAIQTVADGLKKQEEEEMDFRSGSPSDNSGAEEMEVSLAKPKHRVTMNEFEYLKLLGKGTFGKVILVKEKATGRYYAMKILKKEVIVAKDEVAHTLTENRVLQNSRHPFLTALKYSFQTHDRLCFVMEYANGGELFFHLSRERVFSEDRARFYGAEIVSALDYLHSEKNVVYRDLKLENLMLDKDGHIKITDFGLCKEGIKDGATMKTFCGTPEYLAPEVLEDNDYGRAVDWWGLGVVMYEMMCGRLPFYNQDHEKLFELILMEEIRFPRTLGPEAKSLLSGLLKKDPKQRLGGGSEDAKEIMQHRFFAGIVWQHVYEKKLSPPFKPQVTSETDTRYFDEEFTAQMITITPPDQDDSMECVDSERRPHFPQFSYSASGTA
Excerpt: as §2, §3
AlphaScreen® SureFire™ Phospho-Akt1 (pThr308) Kit from Perkin Elmer (TGRA2S10K)
LNCaP cells (ECACC, 89110211) cultured in RPMI-1640 culture media (Fisher, 10665193) supplemented with 2 mM L-glutamine, 1% sodium pyruvate and 10% FBS
as §6, §7, §8

[5] = molecular target: T5, Akt2 (Homo sapiens, UniProt P31751); assay: Akt activation assay (PDK1-mediated activation, LANCE Ultra crosstide TR-FRET), Akt2; type: biochemical; settings: read-out: Biological Assay 1 IC50 (nM) Akt2
T5 construct: unspecified tag, removed (detagged) (cleaved yes); purchased SignalChem and Proteros (Akt2); Merck Millipore (PDK1) 14-452 (PDK1); none given for Akt2
T5 sequence (P31751 whole entry): as the sequence (P31751 whole entry) above
Procedure, shortened: as §1

[6] = molecular target: T6, Akt1 (Homo sapiens, UniProt P31749); assay: Akt activation assay (PDK1-mediated activation, LANCE Ultra crosstide TR-FRET), Akt1; type: biochemical; settings: read-out: Biological Assay 1 IC50 (nM) Akt1
T6 construct: unspecified tag, removed (detagged) (cleaved yes); purchased SignalChem and Proteros (Akt1); Merck Millipore (PDK1) 14-452 (PDK1); none given for Akt1
T6 sequence (P31749 whole entry): as the sequence (P31749 whole entry) above
Procedure, shortened: as §1

SMILES | IC50 [1] [nM] | IC50 [2] [nM] | IC50 [3] [nM] | IC50 [4] [nM] | IC50 [5] [nM] | IC50 [6] [nM]
CC(=O)N[C@H]1CC[C@H](C(C)C(=O)Nc2cnc(-c3ccc(C4(N)CCC4)cc3)c(-c3ccccc3)c2)CC1 (relative stereo) [Example 41, 2-(trans-4-acetamidocyclohexyl)-N-(6-(4-(1-aminocyclobutyl)phenyl)-5-phenylpyridin-3-yl)propanamide] | 170 | 1500 | 130 | > 30000 | 240 | –
COC(=O)N(C)[C@H]1CC[C@H](C(C)C(=O)Nc2cnc(-c3ccc(C4(N)CCC4)cc3)c(-c3ccccc3)c2)CC1 (relative stereo) [Example 54, Methyl (trans-4-(1-((6-(4-(1-aminocyclobutyl)phenyl)-5-phenylpyridin-3-yl)amino)-1-oxopropan-2-yl)cyclohexyl)(methyl)carbamate] | 280 | 6400 | 240 | > 21000 | 970 | –
CC(=O)N(C)[C@H]1CC[C@H](CC(=O)Nc2cc(-c3ccccc3)c(-c3ccc(C4(N)CCC4)cc3)cn2)CC1 [Example 33, N-(5-(4-(1-aminocyclobutyl)phenyl)-4-phenylpyridin-2-yl)-2-(trans-4-(N-methylacetamido)cyclohexyl)acetamide] | 92 | 2500 | 100 | 9800 | 540 | –
COCCN(C)[C@H]1CC[C@H](CC(=O)Nc2cnc(-c3ccc(C4(N)CCC4)cc3)c(-c3ccsc3)c2)CC1 [Example 39, N-(6-(4-(1-aminocyclobutyl)phenyl)-5-(thiophen-3-yl)pyridin-3-yl)-2-(trans-4-((2-methoxyethyl)(methyl)amino)cyclohexyl)acetamide] | 2300 | 4200 | 180 | > 14000 | 3100 | –
NC1(c2ccc(-c3ncc(NC(=O)C[C@H]4CC[C@H](N5CCCC5=O)CC4)cc3-c3ccsc3)cc2)CCC1 [Example 48, N-(6-(4-(1-aminocyclobutyl)phenyl)-5-(thiophen-3-yl)pyridin-3-yl)-2-(trans-4-(2-oxopyrrolidin-1-yl)cyclohexyl)acetamide] | 240 | 2700 | 110 | > 27000 | 910 | –
COC(=O)N(C)[C@H]1CC[C@H](CC(=O)Nc2cnc(-c3ccc(C4(N)CC4)c(F)c3)c(-c3ccccc3)c2)CC1 [Example 62, Methyl (trans-4-(2-((6-(4-(1-aminocyclopropyl)-3-fluorophenyl)-5-phenylpyridin-3-yl)amino)-2-oxoethyl)cyclohexyl)(methyl)carbamate] | 170 | – | 360 | > 30000 | 2300 | > 30000
C[C@]1(O)C[C@@](N)(c2ccc(-c3nnc(NC(=O)C[C@H]4CC[C@H](N5CCOC5=O)CC4)nc3-c3ccccc3F)cc2)C1 [Example 68, N-(6-(4-(trans-1-amino-3-hydroxy-3-methylcyclobutyl)phenyl)-5-(2-fluorophenyl)-1,2,4-triazin-3-yl)-2-(trans-4-(2-oxooxazolidin-3-yl)cyclohexyl)acetamide] | 99 | – | 410 | > 30000 | 860 | 6400
COC(=O)N(C)[C@H]1CC[C@H](CC(=O)Nc2cc(-c3ccsc3)c(-c3ccc(C4(N)CCC4)cc3)nn2)CC1 [Example 81, Methyl (trans-4-(2-((6-(4-(1-aminocyclobutyl)phenyl)-5-(thiophen-3-yl)pyridazin-3-yl)amino)-2-oxoethyl)cyclohexyl)(methyl)carbamate] | 59 | 4300 | 120 | > 27000 | 1300 | –
CC(C)C(=O)N(C)[C@H]1CC[C@H](CC(=O)Nc2cc(-c3ccccc3)c(-c3ccc([C@]4(N)C[C@](C)(O)C4)cc3)cn2)CC1 [Example 85, N-(trans-4-(2-((5-(4-(trans-1-amino-3-hydroxy-3-methylcyclobutyl)phenyl)-4-phenylpyridin-2-yl)amino)-2-oxoethyl)cyclohexyl)-N-methylisobutyramide] | 13 | 600 | 20 | 4700 | 77 | –
COC(=O)N[C@H]1CC[C@H](CC(=O)Nc2cc(-c3ccccc3)c(-c3ccc([C@]4(N)C[C@](C)(O)C4)cc3)cn2)CC1 [Example 103, Methyl (trans-4-(2-((5-(4-(trans-1-amino-3-hydroxy-3-methylcyclobutyl)phenyl)-4-phenylpyridin-2-yl)amino)-2-oxoethyl)cyclohexyl)carbamate] | 11 | 390 | 15 | 2600 | 78 | –
CCC(=O)N(C)[C@H]1CC[C@H](CC(=O)Nc2cc(-c3ccsc3)c(-c3ccc([C@]4(N)C[C@](C)(O)C4)cc3)cn2)CC1 [Example 110, N-(trans-4-(2-((5-(4-(trans-1-amino-3-hydroxy-3-methylcyclobutyl)phenyl)-4-(thiophen-3-yl)pyridin-2-yl)amino)-2-oxoethyl)cyclohexyl)-N-methylpropionamide] | 17 | 1200 | 16 | 8800 | 380 | –
COC(=O)N(C(C)C)[C@H]1CC[C@H](CC(=O)Nc2cnc(-c3ccc([C@]4(N)C[C@](C)(O)C4)cc3)c(-c3ccccc3)c2)CC1 [Example 121, Methyl (trans-4-(2-((6-(4-(trans-1-amino-3-hydroxy-3-methylcyclobutyl)phenyl)-5-phenylpyridin-3-yl)amino)-2-oxoethyl)cyclohexyl) (isopropyl)carbamate] | 7 | 390 | 11 | 1800 | 160 | –
COC(=O)N(C)[C@H]1CC[C@H](CC(=O)Nc2cc(-c3ccccc3)c(-c3ccc(C(C)(C)N)cc3)cn2)CC1 [Example A48, Methyl (trans-4-(2-((5-(4-(2-aminopropan-2-yl)phenyl)-4-phenylpyridin-2-yl)amino)-2-oxoethyl)cyclohexyl)(methyl)carbamate] | – | > 30000 | 1700 | > 30000 | – | –
COC(=O)N(C)[C@H]1CC[C@H](CC(=O)Nc2cc(-c3ccccc3)c(-c3ccc(C4(N)CC4)cc3)nn2)CC1 [Example A77, Methyl (trans-4-(2-((6-(4-(1-aminocyclopropyl)phenyl)-5-phenylpyridazin-3-yl)amino)-2-oxoethyl)cyclohexyl)(methyl)carbamate] | 22 | – | 240 | > 30000 | 590 | > 25000
